Consider one molecule from patent US20260091082A1, “CYCLIC PEPTIDE DERIVATIVE COMPOSITION FOR TREATING OR PREVENTING EYE DISEASE” (DKS Co. Ltd., priority 2022, published 2026).

Several values for one entry are separate records, joined by “and”; a condition that tells them apart may be missing. Equal values may be shown once.

A short description of data set [1]: General condition observation (clinical signs) in anterior chamber aqueous humor pressure load rat model. The class given is in vivo, Rat; Slc: SD. Details: key: —: No anormal sign. Particulars: 10 mg/mL intravenous, once about 30 minutes before ischemic load, animals 401-410 (test group 4), per animal. Here is the method:
(§1) • Species and strains: Rat; Slc: SD • Number of animals on arrival and sex: 50 males • Age in weeks at arrival: 6 weeks old • Body weight range at arrival: 147.2 to 170.0 g • Source: Japan SLC, Inc.
The body weight of the animals was measured at a frequency of once a week or more, and the general condition observation was performed every day.
(§2) • Administration route: Eyedrop administration, intravenous administration • Administration method (eyedrop): Eyedrop administration was performed on a treated eye (right eye) of a rat using a micropipette 4 times a day (at intervals of 1.5 hours or more). • Administration method (intravenous): The amount of administration solution, calculated from the body weight on the day of administration, was administered from the tail vein using a syringe and an injection needle about 30 minutes before ischemic load. • Time of administration: Administration was performed according to the following schedule.

For data set [2], the system named is anterior chamber aqueous humor pressure load rat model. The data set is described as follows: Retinal thickness (IPL, INL, ONL) in retinal damage model induced by anterior chamber aqueous humor pressure load. The class given is in vivo, Rat; Slc: SD. The note with it: 10 mg/mL intravenous, right eye. Here is the method:
• Name: Compound 9 • Source: Synthesized in the above Examples • Used amount: 0.4 mL (50 mg/mL solution) • Storage conditions: Freezing, light shielding
Method for preparing test substance (1 mg/mL): A high concentration solution prepared at 50 mg/mL was diluted 50 times with a medium to prepare a 1 mg/mL administration solution.
• Name: MK-801 • Distributor: SIGMA-ALDRICH • Use amount: 0.0501 g • Storage condition: refrigerated (2° C. to 8° C.)
Method for preparing positive control substance (10 mg/mL): 0.0501 g was weighed out and made up to a total volume of 5 mL with a control substance (physiological saline).
as §1
Grouping was performed two days before the first creation of the retinal damage model induced by an anterior chamber aqueous humor pressure load. Using the daily body weight as an index, stratified random allocation was performed using SAS (Ver. 9.3, SAS Institute Japan Ltd.) and EXSUS (Ver. 8.0, CAC Croit Corporation) so that an average value of the body weights of each group was approximately uniform.
as §2
1. 10 mg/kg xylazine hydrochloride was intramuscularly administered on the model creation day (day 0). A rat was placed in an anesthesia box and subjected to general anesthesia with isoflurane (5%, oxygen:nitrous oxide=1:3). When anesthesia was effective, the rat was taken out of the anesthesia box, an inhalation anesthetic mask was worn, and anesthesia was maintained with isoflurane (1% to 5%, oxygen nitrous oxide=1:3).
2. The body temperature was maintained at 37° C. with a warming mat, and a mydrin P ophthalmic solution was instilled in the right eye (treated eye) of the rat to dilate the pupil, then the cravit ophthalmic solution 1.5% (Santen Pharmaceutical Co., Ltd.) was instilled.
3. A bottle of an IV bag containing physiological saline was previously suspended so that a water surface was 155 cm (100 mmHg or more) higher than the eye of the rat. The IV bag was connected to a pediatric infusion set (Terumo Corporation), a 27 G injection needle thereof was inserted into and fixed to the anterior chamber while slightly dripping the liquid from a needle tip. The model was created in the light phase (6:00 to 18:00) in consideration of the diurnal variation of the intraocular pressure.
4. After the needle was inserted into the anterior chamber, pressure (100 mmHg or more) was loaded and maintained in the anterior chamber by associating the reflux system.
5. After an ischemic load for 45 minutes, the injection needle and the like were removed, the inhalation anesthetic mask was removed, and the rat was sufficiently woken up under a warming mat, and then returned to the cage.
6. For 2 days after surgery, 10 mg/kg xylazine hydrochloride was intramuscularly administered as an analgesic for the purpose of alleviating the pain after the treatment.
1. Fourteen days after model creation, general anesthesia was performed with isoflurane (5%, oxygen:nitrous oxide=1:3), euthanasia was then performed by exsanguination, a suture was placed as a marker at the 12 o'clock position of the ocular conjunctiva, and eyeball enucleation was performed.
2. […]

Where [3] appears, read: 300 μm from optic disk, individual measurements per animal.
Setting [4] is: 300 μm from optic disk, mean per animal.

Turning to `C[C@]12N[C@H](Cc3ccccc31)c1ccccc12` [MK-801, reference compound], the Clinical signs result in data set [1] (Day 0), in data set [1] (Day 1), in data set [1] (Day 2), in data set [1] (Day 3), in data set [1] (Day 4) and in data set [1] (Day 5) was “—” throughout. The Clinical signs result in data set [1] (Day 6), in data set [1] (Day 7), in data set [1] (Day 8), in data set [1] (Day 9), in data set [1] (Day 10) and in data set [1] (Day 11) was “—” throughout. The Clinical signs result in data set [1] (Day 12), in data set [1] (Day 13), in data set [1] (Day 14 (day of necropsy)), in data set [1] (Day −1) and in data set [1] (Day −2) was “—” in each case. Moreover, in data set [2] (setting [3]), the “Thickness of INL (μm), Distance from Optic Disk 300 μm” value was 43.354 μm and 38.856 μm and 38.516 μm and 27.422 μm (2×) and 28.629 μm and 30.645 μm and 26.920 μm and 25.120 μm and 24.650 μm and 35.504 μm and 33.881 μm and 32.856 μm and 27.965 μm and 24.925 μm and 25.788 μm and 20.485 μm and 25.262 μm and 25.607 μm and 23.821 μm and 27.016 μm and 25.835 μm and 27.670 μm and 26.395 μm and 24.758 μm and 25.159 μm and 24.873 μm and 35.703 μm and 32.278 μm and 31.627 μm. Besides, in data set [2] (setting [3]), the “Thickness of IPL (μm), Distance from Optic Disk 300 μm” value is 47.608 μm and 50.434 μm and 48.521 μm and 38.326 μm and 39.132 μm and 40.728 μm and 36.614 μm and 38.136 μm and 36.780 μm and 37.923 μm and 37.097 μm and 36.446 μm and 38.879 μm and 37.066 μm and 37.189 μm and 34.034 μm and 34.084 μm and 33.182 μm and 34.736 μm and 31.462 μm and 32.671 μm and 35.348 μm and 37.744 μm and 37.108 μm and 43.612 μm and 37.515 μm and 38.865 μm and 37.237 μm and 35.429 μm and 37.489 μm. Further, the “Thickness of INL (μm), Distance from Optic Disk 300 μm, Mean” value in data set [2] (setting [4]) is 40.242 μm and 28.899 μm and 25.563 μm and 34.080 μm and 26.226 μm and 23.785 μm and 25.557 μm and 27.162 μm and 24.930 μm and 33.203 μm. The “Thickness of IPL (μm), Distance from Optic Disk 300 μm, Mean” value in data set [2] (setting [4]) is 48.854 μm and 39.395 μm and 37.177 μm and 37.155 μm and 37.711 μm and 33.767 μm and 32.956 μm and 36.733 μm and 39.997 μm and 36.718 μm. Besides, the “Thickness of INL (μm), Distance from Optic Disk 600 μm” value in data set [2] (600 μm from optic disk, individual measurements per animal) is 38.743 μm and 36.612 μm and 29.504 μm and 25.885 μm and 27.808 μm and 31.247 μm and 41.632 μm and 47.024 μm and 32.661 μm and 30.741 μm and 27.960 μm and 28.852 μm and 19.795 μm and 16.209 μm and 32.381 μm and 32.162 μm and 24.755 μm and 25.923 μm (2×) and 32.268 μm and 39.011 μm and 36.780 μm and 28.629 μm and 32.351 μm and 44.795 μm and 30.775 μm and 27.268 μm and 20.418 μm and 31.364 μm and 35.532 μm.
